Reference: US12685725B2, “Pridopidine for the treatment of mitochondrial-associated diseases and disorders and endoplasmic reticulum (ER) stress” (PRILENIA NEUROTHERAPEUTICS LTD., priority 2019, dated 2026)
Like-named read-outs stand apart in the source and are kept apart here.

Legend:
[1] = tested on: WT and YAC128 cortical/striatal co-cultures; details: 24 h
Method: Oxygen consumption rate (OCR) in WT and hemizygous YAC128 cortical/striatal co-cultures and NSCs was measured using Seahorse XFe-24/96 flux analyzers (Seahorse Bioscience, Billerica, MA, USA) following the manufacturer's instructions. […] Pridopidine (0.1, 1 and/or 5 μM) was added, when indicated in the graphs, 24 h before the experiment. The sensor cartridge plate was incubated with immersed sensors in a non-CO2 incubator at 37° C. for ~16 h (overnight). […] The cell medium was aspirated gently to avoid disturbing cell monolayers. […] Accordingly, mitochondrial basal respiration, maximal respiration and ATP production was automatically calculated and recorded by the Seahorse software. Data was normalized for protein levels.

YAC128 mice = details: 30 mg/kg/day oral gavage 45 days, vs vehicle-treated HD mice, p=0.0270
Method: (§1) 1.5-month-old WT and hemizygous YAC128 mice (males and females in equal proportion) were divided into four groups. […] Mice were divided 4 animals per cage enriched in corn-husk nesting material and paper rolls, each cage representing one individual experiment, for a total of 9 animals per group. Pridopidine was dissolved in deionized sterile water. Animals were weighed every week and the volume of treatment adjusted accordingly. Mice were behaviorally tested in rotarod immediately before commencing treatment and on the day before finishing treatment. Tests were conducted blindly at a set time during the day. Mice were sacrificed 24 h after administration of the final pridopidine dose, and mitochondria isolated from the striatum.

[2] = tested on: mitochondrial complexes II, III and IV; details: 30 mg/kg/day oral gavage 45 days
Method: as §1
The final homogenate was then centrifuged at 1,100×g for 2 min, at 4° C. […] The mitochondrial fraction was pelleted by centrifugation at 18,500×g for 10 min at 4° C. The pellet was then resuspended in 1 mL of mitochondria washing buffer (MWB: in mM, 250 sucrose, 5 HEPES-KOH, 0.1 EGTA, pH 7.2) and centrifuged at 10,000×g for 5 min at 4° C. Mitochondrial pellet was again resuspended in a small volume of ice-cold MWB, to create a concentrated mitochondria solution, and kept on ice for further analysis for a maximum of 2 hours. Protein content of isolated mitochondria was quantified by Bio-Rad assay (Bio-Rad, catalog no. 5000006).
After centrifugation, the volume was adjusted to 450 μL and the Seahorse plate was equilibrated in a humidified C02-free incubator at 37° C. for 10-12 min.

S1R in STHdh^Q7/7 cells [3] = biological target: S1R in STHdh^Q7/7 cells (Mus musculus, UniProt O55242); details: 20 h; P (150 μM vs. 0)<0.05
Method: (§2) Transfections of HEK 293 cells were carried out according to the calcium phosphate method. STHdh^Q7/7 cells are a murine striatal cell line with a stable knock-in of the full-length wild type (WT) human Htt containing a polyglutamine stretch of 7 glutamines (Trettel et al. 2000). […] No cell line used is listed as a commonly misidentified cell line. Cell lines were not authenticated. To reduce any risk of cross-contamination they were grown for a limited number of passages. Transient transfections of NIH 3T3 and STHdh^Q7/7 cells were performed using an MP-100 Microporator (Digital Bio) or ViaFect™ Transfection Reagent (Cat.No. E4981) (Promega), according to the manufacturer's protocols.
(§3) Cells were lysed in PBS containing 1% Triton X-100, 0.5% sodium deoxycholate with protease inhibitors and centrifuged to pellet insoluble aggregates, debris and nuclei. Phosphatase inhibitor cocktail 2 and 3 and 10 mM […] phosphate were added to the lysis buffer to inhibit phosphatases for detection of phosphorylated proteins. Supernatants were separated from pellets and incubated in loading buffer for 5 min at 100° C., pellets were incubated for 10 min at 100° C. After SDS-PAGE and transfer to nitrocellulose membrane, blocking was done in 5% low-fat milk and 0.1% Tween-20 in PBS for 1 h. Incubation with the primary antibody was overnight at 4° C. and after three washes in 0.1% Tween-20 in PBS, incubation with the appropriate secondary antibody was for 1 h at room temperature. After washing, enhanced chemiluminescence assay was performed and the membrane was exposed and quantified in a Bio-Rad ChemiDocXRS Imaging System (Bio-Rad, Hercules, CA).
(§4) Briefly, cells grown for 24 h after transfection on coverslips in 24-well plates were fixed with 3% paraformaldehyde, followed by blocking with 50 mM glycine in PBS and normal goat IgG in PBS/2% BSA. The cells were incubated with primary antibodies for 1 h, washed and incubated for 30 min with secondary antibodies, followed by washes. Nuclei were stained with 4′,6-diamidino-2-phenylindole (Cat.No. F6057) (Sigma). Confocal microscopy was done on a Zeiss laser scanning confocal microscope (LSM 510; Carl Zeiss, Jena, Germany) as described previously. ImageJ was used to quantify fluorescence intensity in images of treated individual cells compared to untreated cells with and without Htt96Q-mCherry aggregates and to calculate Mander's coefficients for colocalization studies.

S1R in STHdh^Q7/7 cells [4] = tested on: S1R in STHdh^Q7/7 cells
Method: as §2, §3, §4

[5] = tested on: S1R/BiP colocalization in NIH 3T3 cells
Method: Colocalization of S1R and mitochondria was assessed in NIH 3T3 cells expressing WT myc-Htt20Q or mutant myc-Htt96Q. Cells were then fixed, permeabilized and reacted with mouse anti-myc and rabbit anti-S1R. Images were pseudo-colored to better visualize the colocalization of S1R and MitoTracker.
as §2, §4

[6] = tested on: S1R-dependence of eIF2α phosphorylation in HEK 293 cells; details: 8 h
Method: HEK 293 cells were transfected with plasmids carrying Cas9 and 3 different guide RNAs (gRNA) targeting human Sigma1-R and a control gRNA. Ten days after transfection and selection with puromycin, cell lysates of the pools of selected cells were tested for S1R knockout by immunoblotting. […] Subsequent cloning by dilution produced, after 4 weeks, several clones with complete knockout of Sigma1-R for each gRNA.
Cells were lysed in PBS containing 1% Triton X-100, 0.5% sodium deoxycholate with protease inhibitors and centrifuged to pellet insoluble aggregates, debris and nuclei. Phosphatase inhibitor cocktail 2 and 3 and 10 mM 0-glycerol phosphate were added to the lysis buffer to inhibit phosphatases for detection of phosphorylated proteins. Supernatants were separated from pellets and incubated in loading buffer for 5 min at 100° C., pellets were incubated for 10 min at 100° C. After SDS-PAGE and transfer to nitrocellulose membrane, blocking was done in 5% low-fat milk and 0.1% Tween-20 in PBS for 1 h. Incubation with the primary antibody was overnight at 4° C. and after three washes in 0.1% Tween-20 in PBS, incubation with the appropriate secondary antibody was for 1 h at room temperature. After washing, enhanced chemiluminescence assay was performed and the membrane was exposed and quantified in a Bio-Rad ChemiDocXRS Imaging System (Bio-Rad, Hercules, CA).

Chain of S1R in STHdh^Q7/7 cells (Mus musculus, UniProt O55242) (O55242 whole entry): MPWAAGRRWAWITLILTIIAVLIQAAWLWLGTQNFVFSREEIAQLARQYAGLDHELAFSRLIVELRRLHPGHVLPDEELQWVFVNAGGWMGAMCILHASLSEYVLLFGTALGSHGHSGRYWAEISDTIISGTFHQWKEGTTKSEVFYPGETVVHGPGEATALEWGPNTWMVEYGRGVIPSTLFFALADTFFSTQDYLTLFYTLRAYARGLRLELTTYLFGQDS

## CCCN1CCC(c2cccc(S(C)(=O)=O)c2)CC1 [Pridopidine, 4-[3-(methylsulfonyl)phenyl]-1-propyl-piperidine]
[1]; HD Y128 corticostriatal neurons, 1 μM, p=0.0061
  maximal respiration: rescues maximal
[1]; HD Y128 corticostriatal neurons, 5 μM, p=0.002
  maximal respiration: rescues maximal
[1]; HD Y128 corticostriatal neurons, 5 μM, p=0.0358
  ATP production: rescues
[1]; HD Y128 corticostriatal neurons, 1 and 5 μM
  basal respiration: non-significant trend towards increasing basal respiration
[1]; WT cells, 1 and 5 μM
  maximal respiration: increases maximal respiration in both WT and Y128 cells
[1]; WT neurons, 1 μM, p=0.0058
  mitochondrial basal respiration: enhances mitochondrial basal respiration
[1]; WT neurons, 5 μM, p=0.0016
  mitochondrial basal respiration: enhances mitochondrial basal respiration
[1]; WT neurons, 5 μM, p=0.02
  ATP production: enhances
YAC128 mice
  motor performance, latency to fall in accelerated rotarod: significant motor improvement
[2]; YAC128 mice
  activity of mitochondrial complex IV (OCR): shows a similar decreasing trend
[2]; YAC128 mice, p=0.0084
  activity of mitochondrial complex III: normalizes the activity of mitochondrial complexes H and III
[2]; YAC128 mice, p=0.0306
  activity of mitochondrial complex II: normalizes the activity of mitochondrial complexes H and III
[2]; wild-type mice
  mitochondrial complex activities: does not affect mitochondrial complex activities
S1R in STHdh^Q7/7 cells [3]
  Triton-insoluble levels of endogenous S1R: also those of the endogenous S1R
S1R in STHdh^Q7/7 cells [4]; 20 h, starting 4 h post-transfection
  Triton-insoluble levels of S1R-YFP: increases the Triton-insoluble levels of S1R-YFP
S1R in STHdh^Q7/7 cells [4]; in the presence of Htt96Q-mCherry, dose-dependent, up to 150 μM, 20 h
  increase of S1R-YFP levels above the levels in the untreated cells: up to 47%
S1R in STHdh^Q7/7 cells [4]; treatment for 20 h
  pattern (subcellular localization) of S1R-YFP: does not change the pattern of S1R-YFP
[5]; cells expressing Htt20Q
  S1R/BiP colocalization: does not affect S1R/BiP colocalization
[5]; cells expressing Htt96Q aggregates, 150 μM
  S1R/BiP colocalization (BiP-RFP): restores S1R/BiP colocalization in cells expressing Htt96Q aggregates to normal, unstressed levels
[5]; cells expressing myc-Htt96Q, 150 μM
  colocalization of S1R and BiP-GFP: shows a trend towards increasing colocalization
[6]; S1R expressing control clone expressing Htt96Q
  eIF2α-P levels: significantly reduces eIF2α-P levels
[6]; control clone expressing myc-Htt96Q
  concentration of maximal effect on eIF2α phosphorylation: 3 µM
